Data as given in PubChem BioAssay (NCI).
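Protocol summary: plate cells (96-well), add compound at 5 concentrations, incubate 48 h, interpolate endpoints linearly. Abbreviation: GI50, concentration required for 50% inhibition of growth. TGI: total growth inhibition.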

Legend:
Experiment in all cases: NCI tumour cell line growth inhibition, 48 h
786-0 renal = system: 786-0 renal
A498 renal = system: A498 renal
A549 NSCLC = system: A549 NSCLC
ACHN renal = system: ACHN renal
BT-549 breast = system: BT-549 breast
CAKI-1 renal = system: CAKI-1 renal
CCRF-CEM leukemia = system: CCRF-CEM leukemia
COLO 205 colon = system: COLO 205 colon
DU-145 prostate = system: DU-145 prostate
EKVX NSCLC = system: EKVX NSCLC
HCC-2998 colon = system: HCC-2998 colon
HCT-116 colon = system: HCT-116 colon
HCT-15 colon = system: HCT-15 colon
HL-60(TB) leukemia = system: HL-60(TB) leukemia
HOP-62 NSCLC = system: HOP-62 NSCLC
HOP-92 NSCLC = system: HOP-92 NSCLC
HS 578T breast = system: HS 578T breast
HT29 colon = system: HT29 colon
IGROV1 ovarian = system: IGROV1 ovarian
K-562 leukemia = system: K-562 leukemia
KM12 colon = system: KM12 colon
LOX IMVI melanoma = system: LOX IMVI melanoma
M14 melanoma = system: M14 melanoma
MCF7 breast = system: MCF7 breast
MDA-MB-231 breast = system: MDA-MB-231 breast
MDA-MB-435 = system: MDA-MB-435
MOLT-4 leukemia = system: MOLT-4 leukemia
NCI-H226 lung = system: NCI-H226 lung
NCI-H23 lung = system: NCI-H23 lung
NCI-H460 lung = system: NCI-H460 lung
NCI-H522 lung = system: NCI-H522 lung
NCI/ADR-RES ovarian = system: NCI/ADR-RES ovarian
OVCAR-3 ovarian = system: OVCAR-3 ovarian
OVCAR-4 ovarian = system: OVCAR-4 ovarian
OVCAR-5 ovarian = system: OVCAR-5 ovarian
OVCAR-8 ovarian = system: OVCAR-8 ovarian
PC-3 prostate = system: PC-3 prostate
RPMI-8226 leukemia = system: RPMI-8226 leukemia
RXF 393 renal = system: RXF 393 renal
SF-268 CNS = system: SF-268 CNS
SF-295 CNS = system: SF-295 CNS
SF-539 CNS = system: SF-539 CNS
SK-MEL-2 melanoma = system: SK-MEL-2 melanoma
SK-MEL-28 melanoma = system: SK-MEL-28 melanoma
SK-MEL-5 melanoma = system: SK-MEL-5 melanoma
SK-OV-3 ovarian = system: SK-OV-3 ovarian
SN12C renal = system: SN12C renal
SNB-19 CNS = system: SNB-19 CNS
SNB-75 CNS = system: SNB-75 CNS
SR leukemia = system: SR leukemia
SW-620 colon = system: SW-620 colon
T-47D breast = system: T-47D breast
TK-10 renal = system: TK-10 renal
U251 CNS = system: U251 CNS
UACC-257 melanoma = system: UACC-257 melanoma
UACC-62 melanoma = system: UACC-62 melanoma
UO-31 renal = system: UO-31 renal

`C=C1CC[C@@H]2[C@](C)(COC(C)=O)[C@H](OC(C)=O)CC[C@@]2(C)[C@@H]1CC(Nc1ccc(S(=O)(=O)Nc2nccc(C)n2)cc1)C1=CCOC1=O` (some centres undefined) gave a GI50 (786-0 renal) of 2.27 µM, a TGI (786-0 renal) of 5.06 µM and a GI50 (A498 renal) of 14.8 µM. The TGI (A498 renal) was 28.4 µM, the GI50 (A549 NSCLC) was 8.19 µM and the TGI (A549 NSCLC) was 21.9 µM. It also gave a GI50 (ACHN renal) of 3.64 µM, a TGI (ACHN renal) of 13 µM and a GI50 (BT-549 breast) of 2.3 µM. It also gave a TGI (BT-549 breast) of 5.61 µM, a GI50 (CAKI-1 renal) of 3.56 µM and a TGI (CAKI-1 renal) of 12.5 µM. The GI50 (CCRF-CEM leukemia) was 0.073 µM, the TGI (CCRF-CEM leukemia) was 3.09 µM and the GI50 (COLO 205 colon) was 2.09 µM. The TGI (COLO 205 colon) was 4.66 µM, the GI50 (DU-145 prostate) was 3.36 µM and the TGI (DU-145 prostate) was 11.8 µM. It also gave a GI50 (EKVX NSCLC) of 13.9 µM, a TGI (EKVX NSCLC) of 27.1 µM and a GI50 (HCC-2998 colon) of 4.98 µM. It also gave a TGI (HCC-2998 colon) of 17.9 µM, a GI50 (HCT-116 colon) of 1.6 µM and a TGI (HCT-116 colon) of 3.56 µM. The GI50 (HCT-15 colon) was 1.79 µM, the TGI (HCT-15 colon) was 4.24 µM and the GI50 (HL-60(TB) leukemia) was 2.1 µM. For the same compound, the TGI (HL-60(TB) leukemia) was 5.63 µM, the GI50 (HOP-62 NSCLC) was 10.3 µM and the TGI (HOP-62 NSCLC) was 22.5 µM. It also gave a GI50 (HOP-92 NSCLC) of 6.24 µM, a TGI (HOP-92 NSCLC) of 18.9 µM and a GI50 (HS 578T breast) of 6.65 µM. It also gave a TGI (HS 578T breast) of 43 µM, a GI50 (HT29 colon) of 2.02 µM and a TGI (HT29 colon) of 4.24 µM. The GI50 (IGROV1 ovarian) was 3.62 µM, the TGI (IGROV1 ovarian) was 13.6 µM and the GI50 (K-562 leukemia) was 2.97 µM. The TGI (K-562 leukemia) was 21.7 µM, the GI50 (KM12 colon) was 4.59 µM and the TGI (KM12 colon) was 16.4 µM. The GI50 (LOX IMVI melanoma) was 1.53 µM, the TGI (LOX IMVI melanoma) was 3.24 µM and the GI50 (M14 melanoma) was 2.81 µM. For the same compound, the TGI (M14 melanoma) was 10.8 µM, the GI50 (MCF7 breast) was 2.27 µM and the TGI (MCF7 breast) was 12.5 µM. The GI50 (MDA-MB-231 breast) was 3.62 µM, the TGI (MDA-MB-231 breast) was 10.2 µM and the GI50 (MDA-MB-435) was 2.92 µM. For the same compound, the TGI (MDA-MB-435) was 10.4 µM, the GI50 (MOLT-4 leukemia) was 3.22 µM and the TGI (MOLT-4 leukemia) was 17.9 µM. The GI50 (NCI-H226 lung) was 2.33 µM, the TGI (NCI-H226 lung) was 5.91 µM and the GI50 (NCI-H23 lung) was 3.78 µM. The TGI (NCI-H23 lung) was 16 µM, the GI50 (NCI-H460 lung) was 4.88 µM and the TGI (NCI-H460 lung) was 18.3 µM. For the same compound, the GI50 (NCI-H522 lung) was 1.26 µM, the TGI (NCI-H522 lung) was 3.1 µM and the GI50 (NCI/ADR-RES ovarian) was 2.94 µM. For the same compound, the TGI (NCI/ADR-RES ovarian) was 13.5 µM, the GI50 (OVCAR-3 ovarian) was 1.76 µM and the TGI (OVCAR-3 ovarian) was 3.36 µM. The GI50 (OVCAR-4 ovarian) was 4.37 µM, the TGI (OVCAR-4 ovarian) was 15.8 µM and the GI50 (OVCAR-5 ovarian) was 3.86 µM. It also gave a TGI (OVCAR-5 ovarian) of 12.8 µM, a GI50 (OVCAR-8 ovarian) of 2.61 µM and a TGI (OVCAR-8 ovarian) of 8.56 µM. It also gave a GI50 (PC-3 prostate) of 4.46 µM, a TGI (PC-3 prostate) of 15.7 µM and a GI50 (RPMI-8226 leukemia) of 1.95 µM. The TGI (RPMI-8226 leukemia) was 6.84 µM, the GI50 (RXF 393 renal) was 2.33 µM and the TGI (RXF 393 renal) was 4.18 µM. It also gave a GI50 (SF-268 CNS) of 6.19 µM, a TGI (SF-268 CNS) of 20.9 µM and a GI50 (SF-295 CNS) of 12.4 µM. The TGI (SF-295 CNS) was 25.6 µM, the GI50 (SF-539 CNS) was 2.07 µM and the TGI (SF-539 CNS) was 4.73 µM. For the same compound, the GI50 (SK-MEL-2 melanoma) was 6.01 µM, the TGI (SK-MEL-2 melanoma) was 20 µM and the GI50 (SK-MEL-28 melanoma) was 2.83 µM. For the same compound, the TGI (SK-MEL-28 melanoma) was 10.1 µM, the GI50 (SK-MEL-5 melanoma) was 3.79 µM and the TGI (SK-MEL-5 melanoma) was 14 µM. It also gave a GI50 (SK-OV-3 ovarian) of 12.7 µM, a TGI (SK-OV-3 ovarian) of 25.3 µM and a GI50 (SN12C renal) of 2.64 µM. For the same compound, the TGI (SN12C renal) was 6.17 µM, the GI50 (SNB-19 CNS) was 6.3 µM and the TGI (SNB-19 CNS) was 20.7 µM. For the same compound, the GI50 (SNB-75 CNS) was 2.69 µM, the TGI (SNB-75 CNS) was 14.9 µM and the GI50 (SR leukemia) was 0.753 µM. For the same compound, the TGI (SR leukemia) was > 100 µM, the GI50 (SW-620 colon) was 1.6 µM and the TGI (SW-620 colon) was 3.68 µM. The GI50 (T-47D breast) was 2.77 µM, the TGI (T-47D breast) was 8.33 µM and the GI50 (TK-10 renal) was 4.94 µM. For the same compound, the TGI (TK-10 renal) was 15.8 µM, the GI50 (U251 CNS) was 3.17 µM and the TGI (U251 CNS) was 10.7 µM. For the same compound, the GI50 (UACC-257 melanoma) was 4.8 µM, the TGI (UACC-257 melanoma) was 16.4 µM and the GI50 (UACC-62 melanoma) was 2.38 µM. It also gave a TGI (UACC-62 melanoma) of 7.13 µM, a GI50 (UO-31 renal) of 2.91 µM and a TGI (UO-31 renal) of 10.6 µM.
